In US9856508B2, “Chemiluminescent compositions, methods, assays and kits for oxidative enzymes” (LIFE TECHNOLOGIES CORPORATION, priority 2010, dated 2018):

Experiments:
CYP3A family isozymes [1] = assay: Isozyme specificity of 1,2-dioxetane substrates, rhCYP microsomes, 2-step endpoint assay; format: biochemical, human; conditions: dioxetane as enzyme substrate
Procedure: (§1) Assays were performed using the same conditions (25° C., 5 nM rhCyp, 10 μM substrate, 25 min endpoint assay, with isozyme-specific buffers, Luminoscan plate reader) but on different days.
(§2) Cytochrome P450 assays have been developed to determine the isozyme specificity of novel 1,2-dioxetane chemiluminescent CYP450 substrates. In these assays, a 1,2-dioxetane substrate that has been determined to be a good substrate for a specific CYP450 isozyme is screened against individual recombinant (human or other) CYP450 isozymes. The protocol follows the 2-Step Endpoint assay format described above (Example 2, Format 1). The assay can be performed using either assay conditions that mimic an inhibition assay (Example 1) using substrate concentrations near the known or predicted Km of the substrate with its known isozyme, or at concentrations designed for more sensitive enzyme detection which is generally above the Km. Assays can be performed in several different ways depending on the desired information. If one is seeking to find out if the dioxetane is a substrate for different CYP450 isozymes at the specific isozyme's preferred assay conditions, the assays should be performed using the buffer and assay conditions preferred by each specific isozyme (Format 1). If one wants to find out if the dioxetane substrate is selective for a given CYP450 isozyme at that isozyme's preferred assay conditions, the assay should be performed using only the assay conditions of the matched isozyme (Format 2). Assays use recombinant human (rh) CYP450 isozymes (final [5 or 10 nM]), NADPH Regeneration System (final [1×]) and Potassium Phosphate Buffer prepared in a 2× Master Mix. 50 μL of the Master Mix is added to the wells of a 96-well plate. 40 μL of water is added the rows of the plate containing the Master Mix. The reaction is started by addition of 10 μL of a 10× NADP+ (nicotinamide adenine dinucleotide phosphate) and 1,2-Dioxetane Substrate (final [1 to 10 μM]) mix to assay wells. The assays are incubated for either 25 min (Format 1) or at the specific assay time (see Example 48, Format 2).
(§3) • (See FIGS. 3A, 4A, and 5A.) Materials: • rhCytochrome P450 Isozymes: • CYP3A4 (BD/Gentest, Cat #456202) (or other vendor) • CYP2C19 (BD/Gentest, Cat #456259) (or other vendor) • CYP2C9 (BD/Gentest, Cat #456258) (or other vendor) • CYP2D6 (BD/Gentest, Cat #456217) (or other vendor) • CYP1A2 (BD/Gentest, Cat #456203) (or other vendor) • Or Other CYP450 recombinant isozymes • 200 mM Potassium Phosphate Buffer, pH 7.4 • 100 mM Potassium Phosphate Buffer, pH 7.4 • 100× NADP+ • (10 mM NADP+ in 100 mM Potassium phosphate buffer, pH 7.4) • 100× Regeneration System • (333 mM Glucose-6-phosphate, 30 Units/mL Glucose-6-phosphate dehydrogenase in 100 mM Potassium Phosphate Buffer, pH 7.4) • 1,2-Dioxetane Substrates (in 100% Acetonitrile, water, or acetonitrile/water mixture) • 96 well white microplate • Accelerator II Protocol Overview: (See, FIG. 10). Assay Set-Up:
(§4) Contains: • NADP+: 100× stock is 10 mM NADP+ in 100 mM Potassium Phosphate Buffer, pH 7.4 • 100 μM Known 1,2-Dioxetane Substrate Assay Procedure: • 1. Thaw all reagents on ice, except substrates: warm-up to RT under aluminum foil (light sensitive) • 2. Prepare 2× Master Mixes in 2× reaction buffer (keep on ice).
(§5) • 3. Add 50 μL of the specific 2× Master Mix to the desired wells • 4. Add 40 μL of sterile water (H2O) to each well of the plate • 5. Cover plate with plate sealer and let the assay wells equilibrate to 25° C. or room temperature for a few minutes while you prepare the 10×NADP+/Substrate Mixture. • 6. Prepare 10× NADP+/Substrate Mixture immediately before use (light sensitive!)
(§6) • 100× NADP+: 10× (1× final) • H2O: to final volume. • Add substrate by trituration and vortex to allow for maximum substrate solubility in the aqueous mixture. • *The final organic solvent concentration in the assay should be less than 0.1% and preferably much less. • 7. […]

CYP2C19 [2] = target: T1, CYP2C19 (Homo sapiens, UniProt P33261); assay: as above; format: biochemical; conditions: for specificity for the CYP2C19 isozyme: FIG. 4A/5A, rhCYP microsomes, 25° C., 25 min, 10 μM substrate, 5 nM rhCYP450, isozyme-preferred potassium phosphate buffer, pH 7.4; for activity from CYP2C19 under CYP2C19 assay conditions: dioxetane as enzyme substrate
T1 construct: purchased BD/Gentest (or other vendor) 456259; host or cells: recombinant human CYP microsomes
T1 sequence (P33261 whole entry): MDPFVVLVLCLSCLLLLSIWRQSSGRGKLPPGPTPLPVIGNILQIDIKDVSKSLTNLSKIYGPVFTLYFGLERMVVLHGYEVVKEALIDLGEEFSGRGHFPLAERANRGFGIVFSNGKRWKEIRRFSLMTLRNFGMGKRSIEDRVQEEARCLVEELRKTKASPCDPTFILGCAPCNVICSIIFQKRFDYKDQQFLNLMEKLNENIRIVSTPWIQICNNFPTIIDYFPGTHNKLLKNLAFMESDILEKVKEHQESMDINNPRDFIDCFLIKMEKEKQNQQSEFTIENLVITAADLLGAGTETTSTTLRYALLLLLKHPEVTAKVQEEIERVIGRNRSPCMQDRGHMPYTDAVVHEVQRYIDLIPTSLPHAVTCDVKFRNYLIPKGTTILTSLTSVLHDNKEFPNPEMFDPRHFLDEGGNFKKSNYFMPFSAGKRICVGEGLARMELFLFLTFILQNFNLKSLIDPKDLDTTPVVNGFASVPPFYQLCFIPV
Procedure: as §1, §2, §3, §4, §5, §6

CYP3A family isozymes [3] = target: T2, CYP3A family isozymes (Homo sapiens, UniProt P08684); assay: as above; format: biochemical; conditions: FIG. 4A; rhCYP microsomes, 25° C., 25 min, 10 μM substrate, 5 nM rhCYP450, isozyme-preferred potassium phosphate buffer, pH 7.4
T2 construct: purchased BD/Gentest (CYP3A4 only; or other vendor) 456202 (CYP3A4); host or cells: recombinant human CYP microsomes
T2 sequence (P08684 whole entry): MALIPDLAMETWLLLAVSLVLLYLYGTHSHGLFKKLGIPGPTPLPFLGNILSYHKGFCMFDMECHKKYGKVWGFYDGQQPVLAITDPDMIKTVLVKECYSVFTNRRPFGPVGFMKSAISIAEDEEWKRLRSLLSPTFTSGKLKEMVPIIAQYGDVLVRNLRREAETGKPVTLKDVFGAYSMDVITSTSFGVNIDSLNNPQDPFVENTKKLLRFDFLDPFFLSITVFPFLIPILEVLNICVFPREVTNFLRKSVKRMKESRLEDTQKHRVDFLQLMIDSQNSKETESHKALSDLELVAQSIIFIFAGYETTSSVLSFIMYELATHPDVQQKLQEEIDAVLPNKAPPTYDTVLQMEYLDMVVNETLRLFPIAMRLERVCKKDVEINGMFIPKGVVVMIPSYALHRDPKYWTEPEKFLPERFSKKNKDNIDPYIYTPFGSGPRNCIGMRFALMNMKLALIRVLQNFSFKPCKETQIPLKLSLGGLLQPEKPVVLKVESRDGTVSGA
Procedure: as §1, §2, §3, §4, §5, §6

CYP2C19 [4] = assay: Isozyme specificity of AMPPD-Bn in pooled human liver microsomes (HLMs); format: biochemical; conditions: FIG. 4B, 25 min, 25° C., 20 μM AMPPD-Bn, 100 mM potassium phosphate buffer, pH 7.4
Procedure: FIG. 4A and FIG. 4B compare CYP450 isozyme specificity of 1,2-dioxetane substrate AMPPD-Bn in recombinant human microsomes (rhCYPs) and human liver microsomes. FIG. 4A is a graphic representation of isozyme specificity of AMPPD-Bn in rhCYP microsomes. Assays were performed at 25° C. for 25 min using 10 μM AMPPD-Bn, 5 nM rhCYP450 and isozyme-preferred potassium phosphate buffer, pH 7.4. […] FIG. 4B is a graphic representation of isozyme specificity of AMPPD-Bn in pooled human liver microsomes (HLMs). Assays were performed for 25 min at 25° C. using 20 μM AMPPD-Bn and 100 mM potassium phosphate buffer, pH 7.4. Positive (3A4) and negative (2C19, 2D6 and microsome only) controls were performed using 5 nM rhCYP450 microsomes. Pooled HLMs were assayed at 0.5, 0.25, 0.125, or 0.0625 mg/ml. Assays were performed either with or without 2 μM ketoconazole to indicate CYP3A family specificity. […] All assays were performed using the 2-step assay method (Example 48, Format A).
The protocol follows the 2-Step endpoint assay format described in Example 48 (Format A). […] The assays are incubated for either 10 to 25 min before addition of Accelerator and reading of luminescent signal on a luminometer. For relative quantification, samples can be compared to a standard curve of known enzyme concentration, bearing in mind that recombinant enzyme can not fully compare to native enzyme. […]

2C19 and 2C18 isozymes = assay: Isozyme specificity of 1,2-dioxetane substrates, rhCYP microsomes, 2-step endpoint assay; format: biochemical, human; conditions: dioxetane as enzyme substrate
Procedure: as §1
Cytochrome P450 assays have been developed to determine the isozyme specificity of novel 1,2-dioxetane chemiluminescent CYP450 substrates. In these assays, a 1,2-dioxetane substrate that has been determined to be a good substrate for a specific CYP450 isozyme is screened against individual recombinant (human or other) CYP450 isozymes. The protocol follows the 2-Step Endpoint assay format described above (Example 2, Format 1). The assay can be performed using either assay conditions that mimic an inhibition assay (Example 1) using substrate concentrations near the known or predicted Km of the substrate with its known isozyme, or at concentrations designed for more sensitive enzyme detection which is generally above the Km. Assays can be performed in several different ways depending on the desired information. If one is seeking to find out if the dioxetane is a substrate for different CYP450 isozymes at the specific isozyme's preferred assay conditions, the assays should be performed using the buffer and assay conditions preferred by each specific isozyme (Format 1). If one wants to find out if the dioxetane substrate is selective for a given CYP450 isozyme at that isozyme's preferred assay conditions, the assay should be performed using only the assay conditions of the matched isozyme (Format 2). Assays use recombinant human (rh) CYP450 isozymes (final [5 or 10 nM]), NADPH Regeneration System (final [1×]) and Potassium Phosphate Buffer prepared in a 2× Master Mix. 50 μL of the Master Mix is added to the wells of a 96-well plate. 40 μL of water is added the rows of the plate containing the Master Mix. The reaction is started by addition of 10 μL of a 10× NADP+ (nicotinamide adenine dinucleotide phosphate) and 1,2-Dioxetane Substrate (final [1 to 10 μM]) mix to assay wells. The assays are incubated for either 25 min (Format 1) or at the specific assay time (see Example 48, Format 2). […]

CYP2C8 = target: T3, CYP2C8 (Homo sapiens, UniProt P10632); assay: as above; format: biochemical; conditions: dioxetane as enzyme substrate
T3 construct: host or cells: recombinant human CYP microsomes
T3 sequence (P10632 1-490): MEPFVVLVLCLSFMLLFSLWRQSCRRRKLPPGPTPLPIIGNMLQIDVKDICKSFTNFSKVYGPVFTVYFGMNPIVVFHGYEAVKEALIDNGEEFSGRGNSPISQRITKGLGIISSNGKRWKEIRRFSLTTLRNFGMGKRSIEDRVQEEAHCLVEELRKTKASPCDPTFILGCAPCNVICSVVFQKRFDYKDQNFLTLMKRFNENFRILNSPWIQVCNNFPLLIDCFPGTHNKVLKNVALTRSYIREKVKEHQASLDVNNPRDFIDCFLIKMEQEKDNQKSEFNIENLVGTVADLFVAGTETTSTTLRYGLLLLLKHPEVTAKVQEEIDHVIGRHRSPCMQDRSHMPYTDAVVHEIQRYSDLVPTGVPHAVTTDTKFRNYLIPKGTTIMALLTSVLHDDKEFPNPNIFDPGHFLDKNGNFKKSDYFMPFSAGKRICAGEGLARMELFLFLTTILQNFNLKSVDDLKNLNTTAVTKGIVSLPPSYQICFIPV
Procedure: as §1, §2, §3, §4, §5, §6

other CYP isozyme = assay: as above; format: biochemical, human; conditions: FIG. 5A, 25° C., 25 min, 10 μM BZT-Me, 5 nM rhCYP450
Procedure: FIG. 5A and FIG. 5B compare CYP450 isozyme specificity of 1,2-dioxetane substrate BZT-Me in recombinant human microsomes (rhCYPs) and human liver microsomes. FIG. 5A is a graphic representation of isozyme specificity of BZT-Me in rhCYP microsomes. Assays were performed ate 25° C. for 25 min using 10 μM BZT-Me, 5 nM rhCYP450, and isozyme-preferred potassium phosphate buffer, pH 7.4. […] FIG. 5B is a graphic representation of isozyme specificity of BZT-Me in pooled human liver microsomes (HLMs). Assays were performed for 25 min at 25° C. using 20 μM BZT-Me and 50 mM potassium phosphate buffer, pH 7.4. Positive (2C19) and negative (3A4, 2D6, and microsome only) controls were performed using 5 nM rhCYP450 microsomes. Pooled HLMs or low 2C19 HLMs were assayed at 0.5, 0.25, 0.125, or 0.0625 mg/ml. Assays were performed with or without 2 μM ketoconazole to indicate CYP3A family specificity or 0.5 μM miconozole. All assays were performed using the 2-step assay method (Example 48, Format A).
Cytochrome P450 assays have been developed to determine the isozyme specificity of novel 1,2-dioxetane chemiluminescent CYP450 substrates. In these assays, a 1,2-dioxetane substrate that has been determined to be a good substrate for a specific CYP450 isozyme is screened against individual recombinant (human or other) CYP450 isozymes. […]

SMILES: COC1(c2cccc(OCc3ccccc3)c2)OOC12C1CC3CC(C1)CC2C3 (stereo not drawn) [AMPPD-Bn]
- specificity for the CYP3A family isozymes (CYP3A family isozymes [1]): strong specificity
- specificity for the CYP2C19 isozyme (CYP2C19 [2]): strong specificity
- activity from CYP2C19 under CYP2C19 assay conditions (CYP2C19 [2]): significant activity
- specificity for CYP3A4 isozyme (CYP3A family isozymes [3]): strong specificity
- contribution of CYP2C19 activity to AMPPD-Bn oxidation in HLMs (CYP2C19 [4]): does not significantly contribute

SMILES: COc1ccc2sc(C3(OC)OOC34C3CC5CC(C3)CC4C5)cc2c1Cl (stereo not drawn) [Cl-BZT-Me]
- specificity for 2C19 and 2C18 isozymes (2C19 and 2C18 isozymes): strong specificity

SMILES: CCOc1cccc(C2(OC)OOC23C2CC4CC3CC(OCCC(C(=O)[O-])C(=O)[O-])(C4)C2)c1.[Na+].[Na+] (stereo not drawn) [bis-CO2Na-Ad-Ph-OEt dxt]
- specificity for CYP2C8 (CYP2C8): high specificity

SMILES: COc1ccc2sc(C3(OC)OOC34C3CC5CC(C3)CC4C5)cc2c1 (stereo not drawn) [BZT-Me]
- specificity for 2C19 and 2C18 isozymes (2C19 and 2C18 isozymes): strong specificity
- oxidation by other CYP isozyme (other CYP isozyme): also oxidized
- specificity for the CYP2C19 isozyme (CYP2C19 [2]): strong specificity

SMILES: CCOc1cc(C2(OC)OOC23C2CC4CC3CC(Cl)(C4)C2)ccc1Cl (stereo not drawn) [CDP-Star-Et, CDP-Star-ET]
- specificity for 2C19 and 2C18 isozymes (2C19 and 2C18 isozymes): strong specificity

SMILES: COc1cc(C2(OC)OOC23C2CC4CC3CC(Cl)(C4)C2)ccc1Cl (stereo not drawn) [CDP-Star-Me]
- specificity for 2C19 and 2C18 isozymes (2C19 and 2C18 isozymes): strong specificity

SMILES: CCOc1cccc(C2(OC)OOC23C2CC4CC3CC(OCC[N+](C)(CC)CC)(C4)C2)c1 (stereo not drawn) [Q+-Amino-Ad-Ph-OEt, Q^+-Amino-Ad-Ph-OEt dxt]
- specificity for the CYP3A family isozymes (CYP3A family isozymes [1]): strong specificity

SMILES: COC1(c2ccc(Cl)c(OCc3ccccc3)c2)OOC12C1CC3CC2CC(Cl)(C3)C1 (stereo not drawn) [CDP-Star-Bn]
- specificity for the CYP3A family isozymes (CYP3A family isozymes [1]): strong specificity
- activity from CYP2C19 under CYP2C19 assay conditions (CYP2C19 [2]): significant activity
